# In PubChem BioAssay (NCI):
#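 Exposure lasted 48 hours, with cells grown in 96-well plates and compounds tested at five concentrations. TGI: total growth inhibition.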 Where a SMILES comes first, the peptide text is derived from it. The star is where a group is joined. Boc = CC(C)(C)OC(=O)*; OBn = c1ccc(CO*)cc1
# How the values were obtained:
# Experiment in all cases: NCI tumour cell line growth inhibition, 48 h
# M19-MEL melanoma = system: M19-MEL melanoma
# SNB-78 CNS = system: SNB-78 CNS
# KM20L2 colon = system: KM20L2 colon
# XF 498 CNS = system: XF 498 CNS
# OVCAR-8 ovarian = system: OVCAR-8 ovarian
# HOP-18 NSCLC = system: HOP-18 NSCLC
# UACC-62 melanoma = system: UACC-62 melanoma
# DMS 273 small cell lung = system: DMS 273 small cell lung
# DLD-1 colon = system: DLD-1 colon
# DMS 114 small cell lung = system: DMS 114 small cell lung
# LXFL 529 NSCLC = system: LXFL 529 NSCLC
# RXF-631 renal = system: RXF-631 renal
# P388 leukemia = system: P388 leukemia
# P388/ADR leukemia = system: P388/ADR leukemia
# SN12K1 renal = system: SN12K1 renal
SMILES,TGI (OVCAR-8 ovarian) [µM],TGI (UACC-62 melanoma) [µM],further results
Ic1ncnc2c1ncn2C1CCCO1 (stereo not given),> 100,> 100,TGI (M19-MEL melanoma): > 100 µM; TGI (SNB-78 CNS): > 100 µM; TGI (KM20L2 colon): > 100 µM; TGI (XF 498 CNS): > 100 µM; TGI (HOP-18 NSCLC): > 100 µM; TGI (DMS 273 small cell lung): > 100 µM; TGI (DLD-1 colon): > 100 µM; TGI (DMS 114 small cell lung): > 100 µM
COc1cc(OCc2nc3ccccc3n3cccc23)cc(OC)c1OC,> 100,> 72.3,
COC(=O)c1cc2c(o1)Sc1ccccc1NC2=O,> 100,> 100,
CC[C@](O)(CC(=O)O[C@H]1C(=O)O[C@@H]2C[C@H]3C(C)=CC(=O)[C@@H](O)[C@]3(C)[C@H]3[C@@]4(O)OC[C@]32[C@@H]1[C@@H](C)[C@H]4O)C(C)C,< 0.01,< 0.01,
Cc1c(C)c2c(c(N)c1C#N)C(=O)N(CCc1ccccc1)C2=O,> 100,> 100,
CC(C)(C)[Si](C)(C)O[C@@H](C(=O)OC1C=CCCC1)[C@@H](NC(=O)c1ccccc1)c1ccccc1 (stereo not given in full),> 100,> 100,
CN(C)C=Nc1cccc2nsnc12,> 100,> 100,
O=c1c(C=Nc2ccccc2Cl)c(O)n(-c2ccccc2)c(=O)n1-c1ccccc1,> 100,> 100,
COc1ccc2cc(CNCCCCCCCCCCCCNCc3ccc4cc(OC)ccc4c3)ccc2c1,32.4,38.4,
O=C(c1cc(Cl)cc(Cl)c1)N(C(=O)N1CCN(c2ccccc2)CC1)c1ccccc1,> 100,> 100,
CCN(CC)C1Oc2cc3c(cc2C(c2ccc(OC)cc2)C1C)OCO3 (stereo not given),44.9,42.1,
CC(=O)C(I(OS(=O)(=O)c1ccc(C)cc1)c1ccccc1)=P(c1ccccc1)(c1ccccc1)c1ccccc1,> 100,17,
COc1ccc(/C=C2\CCC(CNc3cc(C)on3)C2=O)cc1 (stereo not given),> 100,> 100,
Cc1ccc(-n2cnc3c(N)nc(N)nc32)cc1,> 100,> 100,
CC1(C)CN=C(c2ccc3c(c2)Cc2cc(C4=NCC(C)(C)N4)ccc2-3)N1,> 100,69.5,
Nc1nc(N)c2cc(Sc3ccc4nc(N)nc(N)c4c3)ccc2n1,> 100,,
COc1cc(C2SCC(=O)N2c2ccccc2Cl)cc(OC)c1OC (stereo not given),> 100,> 100,
COc1cc2c[n+](C)c3c4cc5c(cc4ccc3c2cc1OC)OCO5,29.9,4.92,TGI (M19-MEL melanoma): 2.9 µM; TGI (LXFL 529 NSCLC): 4.67 µM; TGI (SNB-78 CNS): > 25.9 µM; TGI (KM20L2 colon): 3.47 µM; TGI (XF 498 CNS): 9.95 µM; TGI (RXF-631 renal): > 100 µM; TGI (HOP-18 NSCLC): 93.6 µM; TGI (DMS 273 small cell lung): 11.6 µM; TGI (DLD-1 colon): > 31.6 µM; TGI (DMS 114 small cell lung): 5.92 µM
Cc1cc(C)nc(NS(=O)(=O)c2ccc(NNc3c4ccccc4nc4c(C(=O)Nc5ccc(S(=O)(=O)Nc6ncccn6)cc5)cccc34)cc2)n1,> 100,83.7,
COc1ccc2nc3c([N+](=O)[O-])ccc4c3c(c2c1)N=CN4CCCN(C)C,25.7,28.1,
O=[n+]1c2ccccc2n([O-])c2ccccc21,> 100,> 100,
COC1CC(C)C(OC)C2=CC(=O)C=C(NC(=O)/C(C)=C/C=C\C(C)C(OC(N)=O)/C(C)=C\C(C)C1OC)C2=O (stereo not given),18.3,14.8,TGI (M19-MEL melanoma): 6.62 µM; TGI (LXFL 529 NSCLC): 1.8 µM; TGI (SNB-78 CNS): 13.6 µM; TGI (XF 498 CNS): 3.13 µM; TGI (HOP-18 NSCLC): 15.7 µM; TGI (DLD-1 colon): 2.58 µM; TGI (DMS 114 small cell lung): 17.8 µM
COc1cccc(OC/C(N=Cc2cccnc2)=N/NC(=O)c2ccncc2)c1,> 100,> 100,
C/C1=C/C(C)CC(C)OC(=O)C(C)NC(=O)C(Cc2ccc(O)c(I)c2)N(C)C(=O)CNC(=O)C(C)C1 (stereo not given),> 100,> 20.9,
O=C(Nc1ccc(Cl)cc1)C(=O)C(C(=O)c1ccccc1-c1ccccc1)C1OC(=O)c2ccccc21 (stereo not given),29.3,29.5,TGI (M19-MEL melanoma): 41.6 µM; TGI (LXFL 529 NSCLC): 34.2 µM; TGI (SNB-78 CNS): > 100 µM; TGI (KM20L2 colon): 55.6 µM; TGI (XF 498 CNS): 36.6 µM; TGI (DMS 273 small cell lung): > 100 µM; TGI (DLD-1 colon): > 100 µM; TGI (DMS 114 small cell lung): 38.8 µM

SMILES,TGI (OVCAR-8 ovarian) [µM],TGI (UACC-62 melanoma) [µM],further results
CCOC(=O)C(C(=O)OCC)=C1NC2(c3ccccc3Nc3ccc(C)cc32)C(C#N)S1 (stereo not given),35,26.8,
O=C1C(=O)c2c(oc(=O)c3ccccc23)-c2ccccc21,> 25,> 25,
COc1ccc2cc(Oc3ccc(Cl)cc3)c(=O)oc2c1,> 100,,
COc1nc(C)nc2sc3c(c12)CCCC3,> 100,> 100,
ClC1(Cl)C(c2ccccc2)C1c1ccccc1 (stereo not given),77.4,> 100,
CC(=O)C(=[N+]=[N-])C(=O)NCC#N,> 10,> 10,
CC(C)=CCC[C@@H](C)C1=C(O)C(O)C(C)=C2N=C(c3ccccc3)C(=O)OC21 (stereo not given in full),> 11,5.95,
CN(C)C=C1C(=O)c2c(Br)sc(Br)c2C1=O,72.3,37.1,
CCOC(=O)NNC(=O)C1CSC(c2ccccc2)N1C(C)=O (stereo not given),> 100,> 100,
O=C(c1ccccc1)c1ccc2nc3n(c2c1)C(c1c(F)cccc1F)SC3 (stereo not given),98.4,21.3,
CO[C@H]1c2cccc3cccc(c23)[C@@H]1n1[nH]c(=O)n(C(C)(C)C)c1=O,> 100,> 100,
Cc1csc2nc3c(cnn3C)c(=S)n12,> 100,> 100,
CN1C2CCC1CC(CCOC(c1ccc(F)cc1)c1ccc(F)cc1)C2 (stereo not given),32.1,,
COc1cc(/C=C(\C#N)c2nc3ccccc3o2)ccc1O,50,40.5,
OC(CCN1CCCCC1)(c1ccccc1)c1ccccc1,> 100,> 100,
O=C1c2ccccc2C(O)(C(=O)O)C1(O)CC=C(Cl)Cl (stereo not given),> 125,> 125,TGI (M19-MEL melanoma): > 125 µM; TGI (SNB-78 CNS): > 125 µM; TGI (KM20L2 colon): > 125 µM; TGI (XF 498 CNS): > 125 µM; TGI (P388 leukemia): > 125 µM; TGI (HOP-18 NSCLC): > 125 µM; TGI (P388/ADR leukemia): > 70.3 µM; TGI (DMS 273 small cell lung): > 125 µM; TGI (SN12K1 renal): > 125 µM; TGI (DLD-1 colon): > 125 µM; TGI (DMS 114 small cell lung): > 125 µM
CCN(CC)C(=C(C(Cl)=C(Cl)Cl)[N+](=O)[O-])N(CC)CC,> 100,> 100,
O=C1NC(=O)C(Cc2ccccc2)(c2cccnc2)N1 (stereo not given),> 100,> 100,
Cc1cc(C)nc(NS(=O)(=O)c2ccc(Nc3c4ccccc4nc4c(C(=O)NNCCO)cccc34)cc2)n1,> 100,> 100,
O=C1CC(=O)NC(=NN2C(=O)/C(=C/C(=O)c3ccco3)N=C2c2ccccc2)N1,> 100,> 100,
CN1CCC2(CC1)SC[C@H]1C(=O)N(c3ccc(Cl)cc3)C(=O)N12,> 100,> 100,
c1ccc2c(C3CCN(CCN4CCOCC4)C3)c[nH]c2c1 (stereo not given),> 100,> 100,
O=C1CC(NC(=O)C(F)(F)F)c2c1csc2Br (stereo not given),> 100,> 100,
COc1ccc2c(c1)/C(=C\c1c(C)nc3n1CCS3)C(=O)N2,> 100,> 100,
Cc1oc2c(c1C)S(=O)(=O)C(C#N)C(c1ccccc1)N2 (stereo not given),> 100,> 100,

SMILES,TGI (OVCAR-8 ovarian) [µM],TGI (UACC-62 melanoma) [µM],further results
CC(C)C(NC(=O)C(Cc1ccccc1)NC(=O)OC(C)(C)C)C(=O)NCC(=O)OCc1ccccc1 (stereo not drawn) (Boc-Phe-Val-Gly-OBn; configuration not given here),35.6,30.9,
CCC(C)C(C(=O)N/N=C1/SCC(=O)N1c1ccccc1)C(=O)N/N=C1/SCC(=O)N1c1ccccc1 (stereo not given),> 100,36.9,
CCOC(=O)C1=CN/C(=C(/C)C(=O)OC)SC1C(=O)OCC (stereo not given),> 100,> 100,
N=c1oc2ccc([N+](=O)[O-])cc2cc1C(=O)NCc1ccccc1,33.2,42.9,
Cc1cc([C@H](C#N)c2nc3ccccc3[nH]2)nc(Cl)n1,> 100,65.3,
CNc1c2cccc(C)c2nc2c(C(=O)NCCN(C)C)cccc12,0.297,0.402,
O=C(N/N=C/c1ccc2c(c1)OCO2)Nc1ccccc1Cl,> 43.1,> 83.1,
CN(C)c1ccc(/C=N\NC(=O)c2ccccc2Nc2ccccc2C(=O)N/N=C/c2ccc(N(C)C)cc2)cc1,> 100,> 100,
COc1cc(S(=O)(=O)Nc2nc(-c3ccc(N4C(=O)C(CC(=O)O)SC4c4ccccc4O)cc3)cs2)ccc1Cl (stereo not given),> 100,> 100,
O=C(O)c1ccc(P(=O)(O)c2ccc(C(=O)O)cc2Br)c(Br)c1,> 100,> 100,
Cc1ccc2c(c1)C(=O)/C(=N/Nc1ccc(Cl)cc1)CCO2,> 100,> 100,
COc1ccc(OC)c2sc(N3C(=O)/C(=C/c4ccc(Cl)cc4)N=C3c3ccccc3)nc12,> 100,> 100,
N#C/C(=C\c1cn(Cc2ccccc2)c2ccccc12)c1nn(-c2ccccc2)c(N)c1C#N,21.9,23.6,
COCC(N=CN1CCCc2ccccc2[C@@H]1CCCCl)C(C)(C)C (stereo not given in full),40.7,32.1,
CCOC(=O)C(SCCO)C(C(=O)OCC)n1cnc2c(N)ncnc21 (stereo not given),31.2,24.7,
Cc1oc2c(c1C)S(=O)(=O)C(C#N)=C(c1ccccc1)N2,> 100,> 100,
COC(=O)Nc1nc2ccc(S(=O)(=O)NC(CC(C)C)C(=O)OC)cc2[nH]1 (stereo not given),> 100,> 100,
CC1=NN(C(=O)CC(=O)Nc2ccc(C)cc2)C(=O)C1N=Nc1ccc(C(=O)O)cc1 (stereo not given),> 100,> 100,
OC1(CCc2ccccc2)COC(C(F)(F)F)(C(F)(F)F)C1 (stereo not given),> 100,> 100,
CC(C)(C)O/C=C1/C(=O)OC2C[C@@H](O[Si](C)(C)C(C)(C)C)CC12 (stereo not given in full),> 100,,
CC(=O)O[C@H]1CC[C@H]2[C@@H]3CCC4C(C)=NNC(=O)C4[C@H]3CC[C@]12C (stereo not given in full),> 100,> 100,
COc1ccc(Nc2nnc(CCCCCCCCc3nnc(Nc4ccc(OC)cc4)o3)o2)cc1,> 100,,
O=c1[nH]n(Cc2ccccc2Cl)c2ccc([N+](=O)[O-])cc12,> 100,> 100,
